# Reference: patent US8232377B2, “Method for high-level secretory production of protein” (priority 2006, dated 2012)
# What was measured:
# [1] = system: O. minuta YY3P4omH strain; experiment: Antibody production by PMT4-inactivated, HAC1-introduced O. minuta using PMT inhibitor (1c), TR-FRET quantification; type: cell-based, Ogataea minuta; details: stock solution 10 mM; 27° C., 3 days (FIG. 18)
# Experimental: (§1) 20 mM Tris-HCl buffer (pH 7.2) comprising 12 μl of 0.97 μg/ml LANCE Eu-W1024 labeled anti-human IgG (PerkinElmer), 8.3 ug/ml of biotin-conjugated mouse anti-human IgG (BD Bioscience), 16.7 ug/ml Surelight APC streptavidin (PerkinElmer), and 10% of Block Ace (Dainippon Pharmaceutical) was applied to a 96-well half area plate (Corning), and 2 μl of a sample solution prepared by adequately diluting the culture solution prepared in (2) above with 20 mM Tris-HCl buffer (pH 7.2) containing 10% of Block Ace was introduced therein, followed by agitation. The sample solution was subjected to the reaction at room temperature in the dark for 1 hour, and fluorescence was then assayed using EnVision (PerkinElmer). The amount of aggregate antibodies produced was determined based on the value at 665 nm/615 nm. Antibodies produced in animal cells (CHO) were used as standard samples. […]
# (§2) A platinum loopful of antibody-producing strains with an insertionally inactivated PMT gene and with the HAC1 gene introduced therein prepared in Example 25 (1) was inoculated into 5 ml of B2YP4G medium, cultured at 27° C. for 1 day, and diluted with B2YP4G medium to adjust OD600 to 10. […] Culture was conducted at 27° C. for an additional 3 days, OD600 was measured every 24 hours, and PMT inhibitors (1c) were added in amounts of 0.00032 μM, 0.0016 μM, 0.008 μM, and 0.04 μM, respectively, as the OD600 value increased by 1. […]
# [2] = system: O. minuta AK3RH and O. minuta AK3AHy; experiment: Antibody production by transformed O. minuta with PMT inhibitor added, Western analysis of culture supernatant; type: cell-based, Ogataea minuta; details: Western analysis (FIG. 6)
# Experimental: O. minuta AK3RH and O. minuta AK3AHy were cultured in BYPG medium (1% yeast extract (Difco), 2% polypeptone (Difco), 0.5% glycerol, and 0.1M phosphate buffer (pH 6.0)) for 2 days, and these strain were cultured in BYPM media [1% yeast extract (Difco), 2% polypeptone (Difco), 1.5% methanol, and 0.1M phosphate buffer (pH 6.0)] to which 0 μM, 1 μM, 5 μM, 10 μM, 20 μM, and 50 μM PMT inhibitors (the rhodanine-3-acetic acid derivative: 5-[[3,4-(1-phenylmethoxy)phenyl]methylene]-4-oxo-2-thioxo-3-thiazolidineacetic acid (compound (1c) described in Bioorganic & Medicinal Chemistry Letters, Vol. 14, p. 3975, 2004)) had been added at 28° C. for 2 days. A culture supernatant was prepared from the culture solution and subjected to SDS-PAGE. Thereafter, the separated protein was blotted on a PVDF membrane, and Western analysis was carried out using a labeled anti-human antibody (anti-human Fc antibody). […] The adequate concentration of the PMT inhibitor to be added was 5 μM. In such a case, the amount of antibody secretion and the percentage of aggregate formation were increased.
# [3] = system: O. minuta AA2omH, AA2 ppH, AA2scH and AA2Hy strains; experiment: Antibody production by O. minuta strains with HAC1 gene introduced using PMT inhibitor (1c), TR-FRET quantification; type: cell-based, Ogataea minuta; details: 2 μM, plus 0.04 μM as OD600 increased by 1; 27° C., 3 days; HAC1 strains compared with control AA2Hy strain (FIG. 11)
# Experimental: as §1
# A platinum loopful of the O. minuta AA2omH strain, the O. minuta AA2 ppH strain, the O. minuta AA2scH strain, and the O. minuta AA2Hy strain was inoculated into 5 ml of B2YP4G medium, cultured at 27° C. for 1 day, and then diluted with B2YP4G medium to adjust OD600 at 10. […] A culture supernatant was prepared from the culture solution, and the amount of antibody production was measured by the method described in Example 21 (3).
# [4] = system: O. minuta YY3P2omH strain; experiment: Antibody production by PMT2-inactivated, HAC1-introduced O. minuta using PMT inhibitor (1c), TR-FRET quantification; type: cell-based, Ogataea minuta; details: stock solution 2.5 mM; 27° C., 3 days (FIG. 18)
# Experimental: as §1, §2
# [5] = system: S. cerevisiae T2K01, T2K02, T2K03 and T2K04 strains; experiment: Antibody productivity of transformed S. cerevisiae with PMT inhibitor added, sandwich ELISA; type: cell-based, Saccharomyces cerevisiae; details: 10 μM PMT inhibitor in YPAD medium, 30° C., 3 days (FIG. 8B)
# Experimental: The S. cerevisiae T2K01, S. cerevisiae T2K02, S. cerevisiae T2K03, and S. cerevisiae T2K04 strains prepared in Example 14 were cultured using ST medium at 30° C. for 3 days. The culture solution was inoculated into YPAD medium to result in a final concentration of 5% therein, and culture was conducted at 30° C. for 3 days. A culture supernatant was prepared from the culture solution, and the resultant was designated as a sample containing antibodies secreted and produced by yeast. The secreted and produced antibodies were subjected to quantitative assay via sandwich ELISA. TRAIL receptor proteins that were antigens of the anti-TRAIL receptor antibodies were adsorbed on a 96-well plate, a yeast sample was added, and detection was carried out using a peroxidase-labeled human IgG specific Fc antibody (Peroxidase-labeled affinity purified antibody to human IgG (Fc) (KPL)) and the ABTS peroxidase substrate (KPL). Antibodies produced in animal cells (NS0) were used as standard samples.
# The S. cerevisiae T2K01, S. cerevisiae T2K02, S. cerevisiae T2K03, and S. cerevisiae T2K04 strains prepared in Example 14 were cultured using ST medium at 30° C. for 3 days. […]
# [6] = system: O. minuta YY1 strains; experiment: Evaluation of PMT inhibitor (5a): antibody production by O. minuta YY1, Western analysis and TR-FRET quantification; type: cell-based, Ogataea minuta; details: 1 μm, plus 0.02 μM as OD600 increased by 1, 27° C.
# Experimental: 20 mM Tris-HCl buffer (pH 7.2) comprising 12 μl of 0.97 μg/ml LANCE Eu-W1024 labeled anti-human IgG (PerkinElmer), 8.3 ug/ml of biotin-conjugated mouse anti-human IgG (BD Bioscience), 16.7 ug/ml Surelight APC streptavidin (PerkinElmer), and 10% of Block Ace (Dainippon Pharmaceutical) was applied to a 96-well half area plate (Corning), and 2 μl of a sample solution prepared by adequately diluting the culture solution prepared in (2) above with 20 mM Tris-HCl buffer (pH 7.2) containing 10% of Block Ace was introduced therein, followed by agitation. The sample solution was subjected to the reaction at room temperature in the dark for 1 hour, and fluorescence was then assayed using EnVision (PerkinElmer). The amount of aggregate antibodies produced was determined based on the value at 665 nm/615 nm. Antibodies produced in animal cells (CHO) were used as standard samples. […] However, similar effects of production could be expected even via introduction of the HAC1 gene derived from a species different from a host.
# A platinum loopful of the O. minuta YY1 strains into which antibody genes had been introduced was inoculated into 5 ml of B2YP4G medium, cultured at 27° C. for 1 day, and diluted with B2YP4G medium to adjust OD600 at 10. […]
Compound,PMT inhibitor amount added as the OD600 value increased by 1 giving the highest antibody productivity [1],"adequate concentration of the PMT inhibitor to be added ([2]; 0, 1, 5, 10, 20 and 50 μM tested in BYPM medium, 28° C., 2 days) [µM]",amount of antibody secretion ([2]; PMT inhibitor at 5 μM),percentage of aggregate formation ([2]; PMT inhibitor at 5 μM),effects of accelerating antibody secretion [3],PMT inhibitor amount added as the OD600 value increased by 1 giving the highest antibody productivity [4],synergistic effects of coexpression of the activated HAC1 gene and the RRBP1 gene on antibody production [5],effects compared with PMT inhibitor (1c) ([6]; 3 days),"productivity of antibody aggregates ([6]; 3 days (FIG. 19, FIG. 20))"
"5-[[3,4-(1-phenylmethoxy)phenyl]methylene]-4-oxo-2-thioxo-3-thiazolidineacetic acid [PMT inhibitor (1c)]",approximately 0.04 μM,5,increased,increased,more significant effects of accelerating antibody secretion,approximately 0.008 μM,further enhanced,,
"CC(Oc1cc(/C=C2\SC(=S)N(CC(=O)O)C2=O)ccc1OCCc1ccccc1)c1ccccc1 (stereo not drawn) [PMT inhibitor (5a), {(5Z)-4-oxo-5-[3-(1-phenylethoxy)-4-(2-phenylethoxy)benzylidene]-2-thioxo-1,3-thiazolidin-3-yl}acetic acid]",,,,,,,,effects equivalent to those of the PMT inhibitor (1c),tend to increase
